Laboratory results published in patent publication US20070299084A1, “Indole Derivatives Useful for Treating Resistance to Antitumor Agents” (NIKEM RESE S.R.L., priority 2004, published 2007).
Marks after values point to notes of the source that are not given here.

Experiments:
[1] = tested on: HepG2 cells (human hepatic carcinoma); experiment: Antiproliferative activity, 48 h treatment, ATPlite luminescence assay, HepG2; assay type: cell-based; details: Homo sapiens, HepG2, read-out: Antiproliferative activity (IC50 ± S.D., μM) HepG2
Experimental: HepG2: maintained in EMEM medium+10% FCS.
(§1) 24 hours after seeding, an aliquot (10 μl) of the drug at the various concentrations is added (for each concentration there are 3 replicates). After 48 hours of treatment the antiproliferative effect is evaluated with a luminescence assay (Perkin Elmer Life Sciences ATPlite):
(§2) 50 μl of a lysis solution are added to each well followed by an equal volume of a solution containing luciferase and D-luciferin. The ATP present in all the metabolically active cells brings about the transformation reaction of D-luciferin, catalysed by luciferase, to produce a luminescent signal as described in the following scheme: ATP+D-luciferin+O2→Oxyluciferin+AMP+PPi+CO2+Light
(§3) The luminescence produced (expressed in counts per second, CPS) is measured by means of a microplate scintillation analyzer (Perkin Elmer Life Sciences Top Count).
(§4) Percentage inhibition of luminescence in the treated cells compared to the control is calculated; concentration-response curves are then analysed using Grafit v.5.0.

[2] = tested on: A2780 cells (human ovarian carcinoma); experiment: Antiproliferative activity, 48 h treatment, ATPlite luminescence assay, A2780; assay type: cell-based; details: Homo sapiens, A2780, 48 h, read-out: Antiproliferative activity (IC50 ± S.D., μM) A2780
Experimental: as §1, §2, §3, §4

[3] = tested on: LoVo cells (human colon carcinoma); experiment: Antiproliferative activity, 72 h treatment, SRB assay, LoVo; assay type: cell-based
Source text: LoVo and LoVo/Dx (line obtained by prolonged exposure to doxorubicin and characterised by overerexpression of P-glycoprotein, which confers resistance to doxorubicin): maintained in HAM-F12 medium+10% FCS.

H460 primary tumor = experiment: H460 human non-small cell lung carcinoma xenograft, antitumor activity on the primary tumor; assay type: in vivo, athymic Swiss nude mice; details: H460 s.c., p.o. for 8 weeks, topotecan 1 mg/kg, compound of example 2 30 mg/kg
Experimental: Female athymic Swiss nude mice (8-10 weeks old) (Charles River, Calco, Italy) were used for the experiments, as described above.
H460 cells were injected i.p. into nude mice, adapted to grow as ascitis and maintained in vivo by i.p. passages (5×10^6 cells/mouse in 0.5 ml PBS) (Pratesi G., Br. J. Cancer 63, 71-74, 1991). Briefly, cells were collected from the donor mice about 7 days after inoculum. After washing, cell number and viability were determined by trypan blue exclusion. Such procedure allowed to obtain a single cell suspension easily available for s.c or i.v. injection.
The effects of the compounds of the invention and/or topotecan on the growth of primary tumors and spontaneous lung metastasis were tested in mice inoculated s.c. in the right flank with H460 ascitic tumor cells (2×10^6/mouse). Each control or drug-treated group included 9-11 mice. The s.c. tumor growth was followed by biweekly measurements of tumor diameters with a Vernier caliper. Drug treatment was delivered orally, for 8 weeks, from day 1. Topotecan was delivered at the dose of 1 mg/kg and compounds of the invention were delivered at the dose of 30 mg/kg; in the combination group the compounds of the invention were delivered almost 1 hour after topotecan treatment. Control mice were solvent-treated orally in parallel with drug treatments.
Drug efficacy was assessed as mean percentage tumor weight inhibition in drug-treated versus control mice expressed as tumor weight inhibition % (TWI %)=100−(mean tumor weight treated/mean tumor weight control×100), evaluated during and after drug treatment. Drug tolerability was assessed in tumor-bearing mice as either lethal toxicity, i.e., any death in treated mice occurring before any control death, or percentage body weight loss (BWL %)=100−(body weight on day x/body weight on day 1×100), where x represents a day after or during the treatment period.

Q: For `CCOc1cc(C(=O)NC2CC(C)(C)NC(C)(C)C2)ccc1-c1cc2cc(Cl)c(Cl)cc2[nH]1` [Example 2], which IC50 [1] is on record?
A: 2 ± 0.1 µM

Q: And the IC50 [2]?
A: 1.9 ± 0.1 µM

Q: What about the IC50 ([3]; Homo sapiens, LoVo, 72 h, read-out: Antiproliferative activity (IC50 ± S.D., μM) LoVo) of the same compound?
A: 2.4 ± 1.4 µM

Q: What about the “Interaction with SN38” value ([3]; LoVo line) of the same compound?
A: synergism

Q: What about the Interaction with taxol ([3]; LoVo line) of the same compound?
A: synergism

Q: What about the “LCK (Log10 Cell Kill)” value (H460 primary tumor) of the same compound?
A: 0.6

Q: And the “Max TWI (day 56) (Maximal Tumor weight inhibition achieved)” value (H460 primary tumor; listed as Compound of example 2)?
A: 58* %

Q: What about the “Max TWI (day 56) (Maximal Tumor weight inhibition achieved)” value (H460 primary tumor; listed as compound of example 2) of the same compound?
A: 58%
